Key:
full-length Nav1.5 = assay: Lysine acetylation of full-length Nav1.5 expressed in HEK 293 cells (acetyl-lysine IP / immunoblot); format: cell-based; conditions: HEK 293 cells expressing the full-length channel
Description: FIGS. 8A and 8B show a series of Western blot images illustrating that wild-type SIRT1 deacetylates full-length Nav1.5. (8A) GFP-tagged full-length Nav1.5 was expressed in HEK 293 cells, with and without myc-tagged wild-type SIRT1, and immunoprecipitated (IP). IPs were immunoblotted (IB) with GFP and myc. (8B) Nav1.5 was expressed in HEK 293 cells. Cells were co-transfected with SIRT or treated with resveratrol or NAM. Acetyl-lysine IPs were immunoblotted for Nav1.5
(§1) How SIRT1 acts to increase Nav1.5 membrane localization and INa was addressed. Because SIRT1 is a lysine deacetylase, it was hypothesized that it changes the acetylation status of lysine residues in Nav1.5. To test this hypothesis, whether the two proteins bind to each other was tested. […] In addition, endogenous SIRT1 co-precipitated with endogenous Nav1.5 in NRCMs and in mouse hearts (FIG. 7B). Next, if Nav1.5 is acetylated on lysine residues was determined. In HEK 293 cells expressing the full-length channel, Nav1.5 was robustly acetylated on lysine residues, and overexpression or stimulation (with resveratrol) of SIRT1 decreased, while inhibition of SIRT1 with NAM increased, this acetylation (FIG. 8).

Nav1.5 (III-IV) = assay: Lysine acetylation of GST-tagged Nav1.5 (III-IV) expressed in HEK 293 cells; format: cell-based; conditions: GST-tagged loop III-IV construct in HEK 293 cells
Description: GST-tagged Nav1.5 (III-IV) was expressed in HEK 293 cells. Cells were co-transfected with wild-type SIRT1 or treated with NAM or resveratrol. Nav1.5 (III-IV) was pulled down with GST-agarose, and immunoblotted (IB) with GST and acety-lysine antibodies.
Because Nav1.5 has 84 lysine residues, the number of putative lysine targets of SIRT1 was narrowed down by excluding the extra-cellular and membrane-spanning domains. Attention was initially focused on one intracellular region (termed loop III-IV) which is rich in lysine residues (12 lysines), based on by prior reports showing that lysines in this region are important for channel function (Grant et al., J. Clinic. Invest. 110, 1201-1209, 2002). Using a GST-tagged construct encoding the 61 amino acids in loop III-IV expressed in HEK 293 cells, if lysine acetylation of this region of Nav1.5 is regulated by SIRT1 was examined.

GST-Nav1.5 (III-IV) = assay: Ubiquitination of GST-Nav1.5 (III-IV) in HEK 293 cells; format: cell-based
native Nav1.5 (INa) = assay: Whole cell patch clamp of INa in rat neonatal cardiac myocytes; format: cell-based; conditions: 5 μM
native Nav1.5 = assay: Lysine acetylation of native Nav1.5 in rat neonatal cardiomyocytes (Western blot); format: cell-based
Experimental: FIGS. 9A-9C are a graph and a set of Western blots showing that inhibition of endogenous SIRT1 increases lysine acetylation of native Nav1.5 in rat neonatal cardiomyocytes.
as §1

[1] = test system: GFP-tagged full-length Nav1.5; assay: Ubiquitination of GFP-tagged full-length Nav1.5 in HEK 293 cells; format: cell-based; conditions: resveratrol 100 μM, 4 hrs
Experimental: FIGS. 13A and 13B are a set of Western blots showing that SIRT1 de-ubiquitinates Nav1.5. (A) HEK 293 cells were transfected with full-length GFP-tagged Nav1.5 and HA-ubiquitin. Cells were treated with resveratrol (100 μM, 4 hrs). Nav1.5 was immunoprecipitated (IP) with GFP and immunoblotted with GFP and HA. (B) HEK 293 cells were transfected with GST-tagged Nav1.5 (III-IV) and HA-ubiquitin. Cells were treated with NAM or co-transfected with SIRT1. Nav1.5 (III-IV) was pulled down with GST-agarose and immunoblotted (IB) with HA.
Poly-ubiquitination of Nav1.5 inhibits its membrane localization (Van Bemmelen et al., Circ. Res. 95, 284-291, 2004). SIRT1 regulates ubiquitination of some of its targets, in some cases decreasing ubiquitination (Van Bemmelen et al., Circ. Res. 95, 284-291, 2004). Because SIRT1 increases membrane expression of Nav1.5, whether SIRT1 decreases ubiquitination of the channel was tested. First, the effect of the SIRT1 activator resveratrol on ubiquitination of Nav1.5 was determined. In HEK 293 cells GFP-tagged full-length Nav1.5 was robustly poly-ubiquitinated (FIG. 13A). […] Using GST-Nav1.5 (III-IV) the effect of SIRT1 on ubiquitination of this intracellular region of Nav1.5 was also examined. Similar to full-length Nav1.5, GST-Nav1.5 (III-IV) was also poly-ubiquitinated (FIG. 13B). […]

QRS amplitude on ECGs = format: in vivo; conditions: suggestive of increased sodium currents
Description: It is disclosed herein that SIRT1 can deacetylate Nav1.5, that Nav1.5 and SIRT1 co-immunoprecipitate, that over-expression of SIRT1 increases INa currents and that dominant negative suppression of SIRT1 or use of SIRT1 inhibitors decreases INa currents, that SIRT1 increases membrane expression of Nav1.5 and dominant negative SIRT1 decreases membrane expression of Nav1.5, that SIRT1 targets lysine 1479 in Nav1.5, that SIRT1 increases INa and dominant negative SIRT1 decreases INa by targeting lysine 1479 in Nav1.5, and that SIRT1 increases membrane expression of Nav1.5 by targeting lysine 1479 in Nav1.5. In addition there is prolongation of the PR interval, intermittent high-grade atrioventricular block on ECGs and telemetry of cardiomyocyte-specific SIRT1 knockout mice compared to wild type control mice, and decreased conduction velocity of the electrical impulse in hearts of cardiomyocyte-specific SIRT1 knockout mice compared to wild type control mice.

Row | Compound | lysine acetylation of full-length Nav1.5 (full-length Nav1.5) | acetylation of Nav1.5 (III-IV) (Nav1.5 (III-IV)) | poly-ubiquitination of GST-Nav1.5 (III-IV) (GST-Nav1.5 (III-IV)) | effect on INa (native Nav1.5 (INa); compared to inactive isomer Ex-242) | effect on INa (native Nav1.5 (INa); compared to inactive isomer Ex-242, listed as ex-243) | lysine acetylation of native Nav1.5 (native Nav1.5) | poly-ubiquitination of full-length Nav1.5 [1] | QRS amplitude on ECGs (QRS amplitude on ECGs)
1 | NC(=O)c1cccnc1 [NAM, nicotinamide] | increased | increased | increased |  |  |  |  | 
2 | NC(=O)[C@H]1CCCc2c1[nH]c1ccc(Cl)cc21 [Ex-243] |  |  |  | significantly decreased | decreases | increases |  | 
3 | Oc1ccc(C=Cc2cc(O)cc(O)c2)cc1 [resveratrol] | decreased | decreased |  |  |  |  | significantly decreased | increased

— patent US20150133527A1, “REGULATION OF CARDIAC SODIUM CHANNELS BY SIRT1 AND SIRT1 ACTIVATORS” (University of Pittsburgh - Of the Commonwealth System of …, priority 2012, published 2015)
